Reference: patent US11578061B2, “Inhibitors of LRRK2 kinase” (Halia Therapeutics, Inc., priority 2021, dated 2023)
pIC50: −log10 of the molar value.

molecular target: recombinant human LRRK2 (catalytic domain only [amino acids 970-2527], GST-tagged) (Homo sapiens (Human), UniProt Q5S007); experiment: LRRK2 Enzymatic Assay; assay type: biochemical; details: LRRKtide substrate, [32P]-ATP
In short: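 GST-tagged catalytic domain (aa 970-2527) at 30 nM with 20 μM LRRKtide in HEPES pH 7.5/MgCl2 buffer, 1% DMSO; compounds (10 μM to 0.5 nM) preincubated 20 min, then [32P]-ATP added for 2 h at room temperature. P81 phosphocellulose capture; activity as % of vehicle, IC50 by curve fit.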

Chain of recombinant human LRRK2 (catalytic domain only [amino acids 970-2527], GST-tagged) (Q5S007 970-2527): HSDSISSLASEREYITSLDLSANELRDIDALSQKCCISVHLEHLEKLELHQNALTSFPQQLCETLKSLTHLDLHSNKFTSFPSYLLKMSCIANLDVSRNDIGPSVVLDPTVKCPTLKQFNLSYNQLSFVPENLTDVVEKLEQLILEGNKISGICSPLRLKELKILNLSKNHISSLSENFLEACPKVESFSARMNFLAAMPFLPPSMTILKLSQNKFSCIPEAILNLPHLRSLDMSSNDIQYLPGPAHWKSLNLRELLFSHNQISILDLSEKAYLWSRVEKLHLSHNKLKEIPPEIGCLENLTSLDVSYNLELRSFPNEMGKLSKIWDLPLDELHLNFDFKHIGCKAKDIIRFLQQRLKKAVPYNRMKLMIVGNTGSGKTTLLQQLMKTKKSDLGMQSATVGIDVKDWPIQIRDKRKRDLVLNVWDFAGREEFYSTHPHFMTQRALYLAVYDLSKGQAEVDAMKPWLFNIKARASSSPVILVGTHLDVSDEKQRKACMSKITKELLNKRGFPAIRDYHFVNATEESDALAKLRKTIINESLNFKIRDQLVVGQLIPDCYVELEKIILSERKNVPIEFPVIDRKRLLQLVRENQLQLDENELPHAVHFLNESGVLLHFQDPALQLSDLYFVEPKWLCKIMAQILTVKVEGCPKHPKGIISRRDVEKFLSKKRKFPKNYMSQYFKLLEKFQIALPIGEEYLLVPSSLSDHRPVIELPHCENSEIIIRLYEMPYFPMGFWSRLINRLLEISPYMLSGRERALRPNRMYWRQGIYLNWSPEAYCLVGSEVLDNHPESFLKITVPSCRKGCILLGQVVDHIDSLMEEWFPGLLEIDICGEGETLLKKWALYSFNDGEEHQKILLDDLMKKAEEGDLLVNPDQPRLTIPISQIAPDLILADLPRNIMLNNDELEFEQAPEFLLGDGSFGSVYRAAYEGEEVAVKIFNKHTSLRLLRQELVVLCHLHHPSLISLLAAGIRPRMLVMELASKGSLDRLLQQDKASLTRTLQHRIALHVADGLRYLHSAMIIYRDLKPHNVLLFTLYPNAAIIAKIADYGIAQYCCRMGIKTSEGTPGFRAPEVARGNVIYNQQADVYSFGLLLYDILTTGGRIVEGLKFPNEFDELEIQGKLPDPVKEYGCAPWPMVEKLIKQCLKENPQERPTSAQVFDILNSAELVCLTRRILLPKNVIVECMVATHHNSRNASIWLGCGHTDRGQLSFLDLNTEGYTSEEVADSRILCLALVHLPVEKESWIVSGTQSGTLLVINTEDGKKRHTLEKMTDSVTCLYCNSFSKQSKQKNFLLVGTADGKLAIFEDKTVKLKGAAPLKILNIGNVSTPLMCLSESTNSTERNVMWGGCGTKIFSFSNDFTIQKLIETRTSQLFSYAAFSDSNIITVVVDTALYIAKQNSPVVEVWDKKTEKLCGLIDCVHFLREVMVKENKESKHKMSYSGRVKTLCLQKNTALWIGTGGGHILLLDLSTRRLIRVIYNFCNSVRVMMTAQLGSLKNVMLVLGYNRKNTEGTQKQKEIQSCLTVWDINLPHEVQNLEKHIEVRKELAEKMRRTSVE

| Structure (SMILES) | pIC50 |
| --- | --- |
| Cc1nn(C(C)(C)C#N)cc1Nc1ncc(F)c(OCC2CCC(OC(F)(F)F)CC2)n1 (racemic) [Example 284, 2-(4-((5-fluoro-4-((4-(trifluoromethoxy)cyclohexyl)methoxy)pyrimidin-2-yl)amino)-3-methyl-1H-pyrazol-1-yl)-2-methylpropanenitrile] | 6.40 to 6.70 |
| Cc1c(Nc2ncc(Cl)c(OCC3(F)CCNCC3)n2)cnn1C1CC(C#N)C1 (stereo not drawn) [Example 22, 3-(4-((5-chloro-4-((4-fluoropiperidin-4-yl)methoxy)pyrimidin-2-yl)amino)-5-methyl-1H-pyrazol-1-yl)cyclobutane-1-carbonitrile] | > 7.30 |
| CN[C@H]1CC[C@H](COc2ccnc(Nc3cc(F)c(C(=O)N4CCOCC4)cc3OC)n2)CC1 [Example 34, (2-fluoro-5-methoxy-4-((4-(((1R,4R)-4-(methylamino)cyclo-hexyl)methoxy)py-rimidin-2-yl)amino)phenyl) (morpholino) methanone] | 6.70 to 7.30 |
| CC(=O)N[C@H]1CC[C@H](COc2nc(Nc3cnn(C4CCOCC4)c3Cl)ncc2F)CC1 [Example 206, N-((1R,4R)-4-(((2-((5-chloro-1-(tetrahydro-2H-pyran-4-yl)-1H-pyrazol-4-yl)amino)-5-fluoropyrimidin-4-yl)oxy)methyl)cyclo-hexyl)acetamide] | > 7.30 |
| N[C@H]1CC[C@H](COc2ccnc(Nc3cccc(N4CCOCC4)c3)n2)CC1 [Example 6, 4-(((1R,4R)-4-aminocyclohexyl)methoxy)-N-(3-morpholinophenyl) pyrimidin-2-amine] | > 7.30 |
| N[C@H]1CC[C@H](COc2nc(Nc3ccc(N4CCOCC4)cc3)ncc2Cl)CC1 [Example 9, 4-(((1R,4R)-4-aminocyclohexyl)methoxy)-5-chloro-N-(4-morpholinophenyl) pyrimidin-2-amine] | > 7.30 |
| O=C(N[C@H]1CC[C@H](COc2nc(Nc3cccc(N4CCOCC4)c3)ncc2Cl)CC1)C(F)F [Example 101, N-((1R,4R)-4-(((5-chloro-2-((3-morpholino-phenyl)amino)pyrimidin-4-yl)oxy)methyl)cyclohexyl)-2,2-difluoro-acetamide] | > 7.30 |
| COc1cc(C(=O)N2CCOCC2)c(F)cc1Nc1ncc(F)c(OC[C@H]2CC[C@H](O)CC2)n1 [Example 214, (2-fluoro-4-((5-fluoro-4-(((1R,4R)-4 hydroxycyclohexyl)methoxy)pyrimidin-2-yl)amino)-5-methoxyphenyl)(morpholino)methanone] | 6.70 to 7.30 |
| C[C@@H]1CN(c2ccc(Nc3ncc(F)c(OCC4(F)CCNCC4)n3)cc2)C[C@H](C)O1 [Example 23, N-(4-((2R,6S)-2,6-dimethylmorpholino)phenyl)-5-fluoro-4-((4-fluoropiperidin-4-yl)methoxy) pyrimidin-2-amine] | > 7.30 |
| CC(=O)N[C@H]1CC[C@H](COc2nc(Nc3cnn(C(F)(F)F)c3)ncc2F)CC1 [Example 187, N-((1R,4R)-4-(((5-fluoro-2-((1-(trifluoromethyl)-1H-pyrazol-4-yl)amino)pyrimidin-4-yl)oxy)methyl)cyclo-hexyl)acetamide] | 6.40 to 6.70 |
| CN[C@H]1CC[C@@H](COc2nc(Nc3cnn(C4CC(C#N)C4)c3C)ncc2Cl)C1 (stereo partly drawn) [Example 52, 3-(4-((5-chloro-4-(((1R,3S)-3-(methylamino)cyclo-pentyl)methoxy)py-rimidin-2-yl)amino)-5-methyl-1H-pyrazol-1-yl)cyclobutane-1-carbonitrile] | > 7.30 |
| Cc1nn(C(C)(C)C#N)cc1Nc1nc(Cl)c(F)c(OC[C@H]2CC[C@H](O)CC2)n1 [Example 248, 2-(4-((4-chloro-5-fluoro-6-(((1R,4R)-4-hydroxycyclohexyl)methoxy)pyrimidin-2-yl)amino)-3-methyl-1H-pyrazol-1-yl)-2-methylpropanenitrile] | < 6.40 |
| CC(C)(O)[C@H]1CC[C@H](COc2nc(Nc3ccc(N4C5CCC4COC5)cc3)ncc2F)CC1 [Example 254, 2-((1S,4S)-4-(((2-((4-(3-oxa-8-azabicyclo[3.2.1]octan-8-yl)phenyl)amino)-5-fluoropyrimidin-4-yl)oxy)methyl)cyclohexyl)propan-2-ol] | 6.70 to 7.30 |
| CC(=O)N[C@H]1CC[C@H](COc2ccnc(Nc3ccc(N4C[C@@H](C)O[C@@H](C)C4)cc3)n2)CC1 [Example 73, N-((1R,4R)-4-(((2-((4-((2R,6S)-2,6-dimethylmorpholino)phenyl)amino)pyrimidin-4-yl)oxy)methyl)cyclo-hexyl)acetamide] | 6.70 to 7.30 |
| C[C@@H]1CN(c2ccc(Nc3ncc(F)c(OC[C@H]4CC[C@H](OC(F)F)CC4)n3)cc2)C[C@H](C)O1 [Example 285, 4-(((1R,4R)-4-(difluoromethoxy)cyclohexyl)methoxy)-N-(4-((2S,6R)-2,6-dimethylmorpholino)phenyl)-5-fluoropyrimidin-2-amine] | 6.40 to 6.70 |
| OC1CCC(COc2nc(Nc3ccc(N4CCOCC4)cc3)ncc2F)CC1 (stereo not drawn) [Example 123, 4-(((5-fluoro-2-((4-morpholinophenyl)amino)pyrimidin-4-yl)oxy)methyl)cyclohexan-1-ol] | 6.70 to 7.30 |
| O=C(N[C@H]1CC[C@@H](COc2nc(Nc3ccc(N4CCOCC4)cc3)ncc2Cl)C1)C(F)F [Example 102, N-((1S,3R)-3-(((5-chloro-2-((4-morpholino-phenyl)amino)pyrimidin-4-yl)oxy)methyl)cyclopentyl)-2,2-difluoro-acetamide] | > 7.30 |

| Structure (SMILES) | pIC50 |
| --- | --- |
| Fc1cnc(Nc2ccc(N3CCOCC3)cc2)nc1OCC1CCNCC1(F)F (stereo not drawn) [Example 29, 4-((3,3-difluoropiperidin-4-yl)methoxy)-5-fluoro-N-(4-morpholinophenyl) pyrimidin-2-amine] | > 7.30 |
| FC(F)(F)CN[C@H]1CC[C@H](COc2nc(Nc3ccc(N4CCOCC4)cc3)ncc2Cl)CC1 [Example 108, 5-chloro-N-(4-morpholino-phenyl)-4-(((1R,4R)-4-((2,2,2-trifluoroethyl)amino)cyclohexyl)methoxy) pyrimidin-2-amine] | > 7.30 |
| FC1(F)CCC(COc2nc(Nc3ccc(N4CCOCC4)cc3)ncc2Cl)CC1 [Example 153, 5-chloro-4-((4,4-difluorocyclohexyl)methoxy)-N-(4-morpholinophenyl)pyrimidin-2-amine] | 6.70 to 7.30 |
| Cc1nn(C(C)(C)C#N)cc1Nc1ncc(Cl)c(OC[C@H]2CC[C@H](C(C)(C)O)CC2)n1 [Example 138, 2-(4-((5-chloro-4-(((1R,4R)-4-(2-hydroxypropan-2-yl)cyclohexyl)methoxy)pyrimidin-2-yl)amino)-3-methyl-1H-pyrazol-1-yl)-2-methylpropanenitrile] | > 7.30 |
| CNC[C@H]1CC[C@H](COc2nc(Nc3ccc(N4CCOCC4)cc3)ncc2Cl)CC1 [Example 49, 5-chloro-4-(((1R,4R)-4-((methylamino)methyl)cyclohexyl)methoxy)-N-(4-morpholinophenyl)py-rimidin-2-amine] | > 7.30 |
| CN[C@H]1CC[C@H](COc2nc(Nc3ccc(N4CCOCC4)cc3)ncc2Cl)CC1 [Example 38, 5-chloro-4-(((1R,4R)-4-(methylamino)cyclo-hexyl)methoxy)-N-(4-morpholinophenyl) pyrimidin-2-amine] | > 7.30 |
| Cc1c(Nc2ncc(F)c(OC[C@H]3CC[C@H](O)CC3)n2)cnn1C(C)(C)C#N [Example 234, 2-(4-((5-fluoro-4-(((1R,4R)-4-hydroxycyclohexyl)methoxy)pyrimidin-2-yl)amino)-5-methyl-1H-pyrazol-1-yl)-2-methylpropanenitrile] | > 7.30 |
| O=S1(=O)CCC(COc2nc(Nc3ccc(N4CCOCC4)cc3)ncc2F)CC1 [Example 287, 4-(((5-fluoro-2-((4-morpholinophenyl)amino)pyrimidin-4-yl)oxy)methyl)tetrahydro-2H-thiopyran 1,1-dioxide] | < 6.40 |
| CCc1nn(C)cc1Nc1ncc(F)c(OC[C@H]2CC[C@H](O)CC2)n1 [Example 233, (1R,4R)-4-(((2-((3-ethyl-1-methyl-1H-pyrazol-4-yl)amino)-5-fluoropyrimidin-4-yl)oxy)methyl)cyclohexan-1-ol] | > 7.30 |
| COc1nn(C)cc1Nc1ncc(F)c(OC[C@H]2CC[C@H](O)CC2)n1 [Example 243, (1R,4R)-4-(((5-fluoro-2-((3-methoxy-1-methyl-1H-pyrazol-4-yl)amino)pyrimidin-4-yl)oxy)methyl)cyclohexan-1-ol] | 6.40 to 6.70 |
| CCN1CCN(Cc2ccc(Nc3ncc(Cl)c(OCC4CCC(O)CC4)n3)nc2)CC1 (stereo not drawn) [Example 131, 4-(((5-chloro-2-((5-((4-ethylpiperazin-1-yl)methyl)pyridin-2-yl)amino)pyrimidin-4-yl)oxy)methyl)cyclohexan-1-ol] | < 6.40 |
| C[C@@H]1CN(c2ccc(Nc3ncc(F)c(OCC4CCC(F)(F)CC4)n3)cc2)C[C@H](C)O1 [Example 269, 4-((4,4-difluorocyclohexyl)methoxy)-N-(4-((2R,6S)-2,6-dimethylmorpholino)phenyl)-5-fluoropyrimidin-2-amine] | 6.40 to 6.70 |
| Cn1cc(Nc2ncc(F)c(OC[C@H]3CC[C@H](O)CC3)n2)cn1 [Example 216, (1R,4R)-4-(((5-fluoro-2-((1-methyl-1H-pyrazol-4-yl)amino)pyrimidin-4-yl)oxy)methyl)cyclohexan-1-ol] | > 7.30 |
| CC(C)(O)[C@H]1CC[C@H](COc2nc(Nc3ccc(N4CCOCC4)cc3)ncc2F)CC1 [Example 144, 2-((1R,4R)-4-(((5-fluoro-2-((4-morpholinophenyl)amino)pyrimidin-4-yl)oxy)methyl)cyclohexyl)propan-2-ol] | 6.70 to 7.30 |
| C[C@@H]1CN(c2ccc(Nc3ncc(F)c(OCC4CCNCC4(F)F)n3)cc2)C[C@H](C)O1 (stereo partly drawn) [Example 30, 4-((3,3-difluoropiperidin-4-yl)methoxy)-N-(4-((2S,6R)-2,6-dimethylmorpholino)phenyl)-5-fluoropyrimidin-2-amine] | > 7.30 |
| CNC[C@H]1CC[C@H](COc2nc(Nc3cn(C4CC(C#N)C4)nc3C)ncc2Cl)CC1 (stereo partly drawn) [Example 51, 3-(4-((5-chloro-4-(((1R,4R)-4-((methylamino)methyl)cyclohexyl)methoxy)pyrimidin-2-yl)amino)-3-methyl-1H-pyrazol-1-yl)cyclobutane-1-carbonitrile] | > 7.30 |
